Reference: US20240116985A1, “STAPLED PEPTIDES AND METHODS THEREOF” (priority 2020, published 2024)

Biological target: T1, full-length beta-Catenin (Uniprot ID P35222) (Homo sapiens, UniProt P35222)
T1 construct: 10 nM full-length beta-Catenin (Uniprot ID P35222)
T1 sequence (P35222 1-781): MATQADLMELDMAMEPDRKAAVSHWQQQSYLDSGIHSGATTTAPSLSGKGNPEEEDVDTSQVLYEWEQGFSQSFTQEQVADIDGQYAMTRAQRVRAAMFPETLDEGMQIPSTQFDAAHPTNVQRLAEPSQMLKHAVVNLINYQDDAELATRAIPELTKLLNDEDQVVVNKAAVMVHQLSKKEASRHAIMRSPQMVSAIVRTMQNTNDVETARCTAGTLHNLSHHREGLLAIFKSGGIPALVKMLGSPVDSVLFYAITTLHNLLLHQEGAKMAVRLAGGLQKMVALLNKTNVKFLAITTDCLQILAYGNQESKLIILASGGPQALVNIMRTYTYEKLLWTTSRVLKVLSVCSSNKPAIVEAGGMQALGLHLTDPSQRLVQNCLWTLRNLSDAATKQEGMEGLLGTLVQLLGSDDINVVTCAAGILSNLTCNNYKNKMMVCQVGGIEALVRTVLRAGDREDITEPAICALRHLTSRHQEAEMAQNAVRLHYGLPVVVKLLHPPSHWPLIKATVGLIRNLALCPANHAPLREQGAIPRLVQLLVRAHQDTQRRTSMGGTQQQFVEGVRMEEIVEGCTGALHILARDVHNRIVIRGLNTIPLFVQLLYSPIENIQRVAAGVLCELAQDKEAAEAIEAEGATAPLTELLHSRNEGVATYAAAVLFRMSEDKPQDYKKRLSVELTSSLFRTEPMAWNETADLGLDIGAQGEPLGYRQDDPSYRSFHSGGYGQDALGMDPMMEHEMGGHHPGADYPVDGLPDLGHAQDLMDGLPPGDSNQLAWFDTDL
Test: Fluorescence polarization IC50 (beta-catenin / 5FAM-TCF4 10-53 competition)
Format: binding
Conditions: fluorescence polarization; read-out: beta-Catenin FP IC50

Compound	IC50
CC(=O)N1CCC[C@]12CC=CCCCC1(CCCC=CCCCOC(=O)N3CC[C@@](C(=O)N[C@@H](Cc4ccsc4)C(=O)N[C@@H](Cc4csc5ccccc45)C(=O)N[C@@H](CCC(N)=O)C(N)=O)(C3)NC(=O)[C@H](CC(N)=O)NC(=O)[C@H](Cc3ccccc3)NC(=O)[C@H](C)NC(=O)[C@H](C)NC(=O)[C@H]([C@@H](C)O)NC(=O)[C@H]([C@@H](C)O)NC1=O)NC(=O)[C@H](CC(C)(C)C)NC(=O)[C@H](CC(=O)O)NC2=O (stereo partly drawn) [I-2149, Ac-PL3-Asp-Npg-B5-Thr-Thr-Ala-Ala-Phe-Asn-PyrS2-3Thi-BztA-Gln-NH2]	7180 nM
CC(=O)N1CCC[C@]12CC=CCCCC1(CCCC=CCCCOC(=O)N3CC[C@@](C(=O)N[C@@H](Cc4cccc(Br)c4)C(=O)N[C@@H](Cc4ccsc4)C(=O)N[C@@H](CCC(N)=O)C(N)=O)(C3)NC(=O)[C@H](CC(C)C)NC(=O)[C@H](Cc3ccccc3)NC(=O)[C@H](C)NC(=O)[C@H](C)NC(=O)[C@H](Cc3cccc(C(=O)O)c3)NC(=O)[C@H](CC(=O)O)NC1=O)NC(=O)[C@H](CC(C)(C)C)NC(=O)[C@H](CC(=O)O)NC2=O (stereo partly drawn) [I-2152, Ac-PL3-Asp-Npg-B5-Asp-3COOHF-Ala-Ala-Phe-Leu-PyrS2-3BrF-3Thi-Gln-NH2]	3080 nM
CC(=O)N1CCC[C@]12CC=CCCCC1(CCCC=CCCCOC(=O)N3CC[C@@](C(=O)N[C@@H](Cc4cccc(Br)c4)C(=O)N[C@@H](Cc4ccccc4)C(=O)N[C@@H](CCC(N)=O)C(N)=O)(C3)NC(=O)[C@H](CC(C)C)NC(=O)[C@H](Cc3ccccc3)NC(=O)[C@H](C)NC(=O)[C@H](C)NC(=O)[C@H](Cc3cccc(C(=O)O)c3)NC(=O)[C@H](CC(=O)O)NC1=O)NC(=O)[C@H](CC(C)(C)C)NC(=O)[C@H](CC(=O)O)NC2=O (stereo partly drawn) [I-2153, Ac-PL3-Asp-Npg-B5-Asp-3COOHF-Ala-Ala-Phe-Leu-PyrS2-3BrF-Phe-Gln-NH2]	1480 nM
CC(=O)N1CCC[C@]12CC=CCCCC1(CCCC=CCCCOC(=O)N3CC[C@@](C(=O)N[C@@H](Cc4cccc(Br)c4)C(=O)N[C@@H](CC4CCC4)C(=O)N[C@@H](CCC(N)=O)C(N)=O)(C3)NC(=O)[C@H](CC(C)C)NC(=O)[C@H](Cc3ccccc3)NC(=O)[C@H](C)NC(=O)[C@H](C)NC(=O)[C@H](Cc3cccc(C(=O)O)c3)NC(=O)[C@H](CC(=O)O)NC1=O)NC(=O)[C@H](CC(C)(C)C)NC(=O)[C@H](CC(=O)O)NC2=O (stereo partly drawn) [I-2154, Ac-PL3-Asp-Npg-B5-Asp-3COOHF-Ala-Ala-Phe-Leu-PyrS2-3BrF-Cba-Gln-NH2]	9550 nM
CC(=O)N1CCC[C@]12CC=CCC1(CC=CCCCCOC(=O)N3CC[C@@](C(=O)N[C@@H](Cc4ccsc4)C(=O)N[C@@H](Cc4csc5ccccc45)C(=O)N[C@@H](CCC(N)=O)C(N)=O)(C3)NC(=O)[C@H](CC(C)C)NC(=O)[C@H](Cc3ccccc3)NC(=O)[C@H](C)NC(=O)[C@H](C)NC(=O)[C@H](CC(=O)O)NC(=O)[C@H](CC(=O)O)NC1=O)NC(=O)[C@H](CC(C)(C)C)NC(=O)[C@H](CC(=O)O)NC2=O (stereo partly drawn) [I-2157, Ac-PL3-Asp-Npg-B3-Asp-Asp-Ala-Ala-Phe-Leu-PyrS3-3Thi-BztA-Gln-NH2]	141 nM
CC(=O)N1CCC[C@]12CCCCC1(CCCCCCOC(=O)N3CC[C@@](C(=O)N[C@@H](Cc4ccsc4)C(=O)N[C@@H](Cc4csc5ccccc45)C(=O)N[C@@H](CCC(N)=O)C(N)=O)(C3)NC(=O)[C@H](CC(C)C)NC(=O)[C@H](Cc3ccccc3)NC(=O)[C@H](C)NC(=O)[C@H](C)NC(=O)[C@H](CC(=O)O)NC(=O)[C@H](CC(=O)O)NC1=O)NC(=O)[C@H](CC(C)(C)C)NC(=O)[C@H](CC(=O)O)NC2=O (stereo partly drawn) [I-2160, Ac-PL3-Asp-Npg-B3-Asp-Asp-Ala-Ala-Phe-Leu-PyrS2-3Thi-BztA-Gln-NH2]	1240 nM
CC(=O)N1CCC[C@]12CC=CCCCC1(CCCC=CCCCOC(=O)N3CC[C@@](C(=O)N[C@@H](Cc4cccc(C(N)=O)c4)C(=O)N[C@@H](Cc4csc5ccccc45)C(=O)N[C@@H](CCC(N)=O)C(N)=O)(C3)NC(=O)[C@H](CC(C)C)NC(=O)[C@H](Cc3ccccc3)NC(=O)[C@H](C)NC(=O)[C@H](CCCCNC(C)C)NC(=O)[C@H](CCC(N)=O)NC(=O)[C@H](CC(=O)O)NC1=O)NC(=O)[C@H](CC1CCCCC1)NC(=O)[C@H](CC(N)=O)NC2=O (stereo partly drawn) [I-2163, Ac-PL3-Asn-Cha-B5-Asp-Gln-iPrLys-Ala-Phe-Leu-PyrS2-3cbmf-BztA-Gln-NH2]	3720 nM
CC(=O)N1CCC[C@]12CC=CCCCC1(CCCC=CCCCOC(=O)N3CC[C@@](C(=O)N[C@@H](Cc4ccccc4)C(=O)N[C@@H](Cc4csc5ccccc45)C(=O)N[C@@H](CCO)C(N)=O)(C3)NC(=O)[C@H](CC(C)C)NC(=O)[C@H](Cc3ccccc3)NC(=O)[C@H](C)NC(=O)[C@H](CCCCNC(C)C)NC(=O)[C@H](CCC(N)=O)NC(=O)[C@H](CC(=O)O)NC1=O)NC(=O)[C@H](CC1CCCCC1)NC(=O)[C@H](CC(N)=O)NC2=O (stereo partly drawn) [I-2165, Ac-PL3-Asn-Cha-B5-Asp-Gln-iPrLys-Ala-Phe-Leu-PyrS2-Phe-BztA-Hse-NH2]	441 nM
CC(=O)N1CCC[C@]12CC=CCCCC1(CCCC=CCCCOC(=O)N3CC[C@@](C(=O)N[C@@H](Cc4cccc(C(N)=O)c4)C(=O)N[C@@H](Cc4csc5ccccc45)C(=O)N[C@@H](CCO)C(N)=O)(C3)NC(=O)[C@H](CC(C)C)NC(=O)[C@H](Cc3ccccc3)NC(=O)[C@H](C)NC(=O)[C@H](CCCCNC(C)C)NC(=O)[C@H](CCC(N)=O)NC(=O)[C@H](CC(=O)O)NC1=O)NC(=O)[C@H](CC1CCCCC1)NC(=O)[C@H](CC(N)=O)NC2=O (stereo partly drawn) [I-2166, Ac-PL3-Asn-Cha-B5-Asp-Gln-iPrLys-Ala-Phe-Leu-PyrS2-3cbmf-BztA-Hse-NH2]	1590 nM
CC(=O)N1CCC[C@]12CC=CCCCC1(CCCC=CCCCOC(=O)N3CC[C@@](C(=O)N[C@@H](Cc4ccccc4)C(=O)N[C@@H](Cc4csc5ccccc45)C(=O)N[C@@H](CCO)C(N)=O)(C3)NC(=O)[C@H](CC(N)=O)NC(=O)[C@H](Cc3ccccc3C(N)=O)NC(=O)[C@H](C)NC(=O)[C@H](CCCCNC(C)C)NC(=O)[C@H](CCC(N)=O)NC(=O)[C@H](CC(=O)O)NC1=O)NC(=O)[C@H](CC1CCCCC1)NC(=O)[C@H](CC(N)=O)NC2=O (stereo partly drawn) [I-2173, Ac-PL3-Asn-Cha-B5-Asp-Gln-iPrLys-Ala-2cbmf-Asn-PyrS2-Phe-BztA-Hse-NH2]	3070 nM

The next lines start with the values.

IC50	Compound
2020 nM	CC(=O)N1CCC[C@]12CC=CCCCC1(CCCC=CCCCOC(=O)N3CC[C@@](C(=O)N[C@@H](Cc4ccsc4)C(=O)N[C@@H](Cc4csc5ccccc45)C(=O)N[C@@H](Cc4ccccc4)C(N)=O)(C3)NC(=O)[C@H]([C@@H](C)O)NC(=O)[C@H](Cc3ccccc3)NC(=O)[C@H](C)NC(=O)[C@H](C)NC(=O)[C@H]([C@@H](C)O)NC(=O)[C@H](CC(N)=O)NC1=O)NC(=O)[C@H](CC(C)(C)C)NC(=O)[C@H](CC(=O)O)NC2=O (stereo partly drawn) [I-2144, Ac-PL3-Asp-Npg-B5-Asn-Thr-Ala-Ala-Phe-Thr-PyrS2-3Thi-BztA-Phe-NH2]
2070 nM	CC(=O)N1CCC[C@]12CC=CCCCC1(CCCC=CCCCOC(=O)N3CC[C@@](C(=O)N[C@@H](Cc4ccsc4)C(=O)N[C@@H](Cc4csc5ccccc45)C(=O)N[C@@H](Cc4ccccc4)C(N)=O)(C3)NC(=O)[C@H]([C@@H](C)O)NC(=O)[C@H](Cc3ccccc3)NC(=O)[C@H](C)NC(=O)[C@H](C)NC(=O)[C@H]([C@@H](C)O)NC(=O)[C@H](CC(N)=O)NC1=O)NC(=O)[C@H](CC(C)(C)C)NC(=O)[C@H](CC(=O)O)NC2=O (stereo partly drawn) [I-2145, Ac-PL3-Asp-Npg-B5-Asn-Thr-Ala-Ala-Phe-Thr-PyrS2-3Thi-BztA-Phe-NH2]
248 nM	CC(=O)N1CCC[C@]12CC=CCCCC1(CCCC=CCCCOC(=O)N3CC[C@@](C(=O)N[C@@H](Cc4ccsc4)C(=O)N[C@@H](Cc4csc5ccccc45)C(=O)N[C@@H](CCC(N)=O)C(N)=O)(C3)NC(=O)[C@H](Cc3c[nH]cn3)NC(=O)[C@H](Cc3ccccc3)NC(=O)[C@H](C)NC(=O)[C@H](C)NC(=O)[C@H]([C@@H](C)O)NC(=O)[C@H](CC(N)=O)NC1=O)NC(=O)[C@H](CC(C)(C)C)NC(=O)[C@H](CC(=O)O)NC2=O (stereo partly drawn) [I-2146, Ac-PL3-Asp-Npg-B5-Asn-Thr-Ala-Ala-Phe-His-PyrS2-3Thi-BztA-Gln-NH2]
390 nM	CC(=O)N1CCC[C@]12CC=CCCCC1(CCCC=CCCCOC(=O)N3CC[C@@](C(=O)N[C@@H](Cc4ccsc4)C(=O)N[C@@H](Cc4csc5ccccc45)C(=O)N[C@@H](CCC(N)=O)C(N)=O)(C3)NC(=O)[C@H](Cc3c[nH]cn3)NC(=O)[C@H](Cc3ccccc3)NC(=O)[C@H](C)NC(=O)[C@H](C)NC(=O)[C@H]([C@@H](C)O)NC(=O)[C@H](CC(N)=O)NC1=O)NC(=O)[C@H](CC(C)(C)C)NC(=O)[C@H](CC(=O)O)NC2=O (stereo partly drawn) [I-2147, Ac-PL3-Asp-Npg-B5-Asn-Thr-Ala-Ala-Phe-His-PyrS2-3Thi-BztA-Gln-NH2]
1180 nM	CC(=O)N1CCC[C@]12CC=CCCCC1(CCCC=CCCCOC(=O)N3CC[C@@](C(=O)N[C@@H](Cc4cccc(C(N)=O)c4)C(=O)N[C@@H](Cc4csc5ccccc45)C(=O)N[C@@H](CCC(N)=O)C(N)=O)(C3)NC(=O)[C@H](CC(N)=O)NC(=O)[C@H](Cc3ccccc3)NC(=O)[C@H](C)NC(=O)[C@H](CCCCNC(C)C)NC(=O)[C@H](CCC(N)=O)NC(=O)[C@H](CC(=O)O)NC1=O)NC(=O)[C@H](CC1CCCCC1)NC(=O)[C@H](CC(N)=O)NC2=O (stereo partly drawn) [I-2164, Ac-PL3-Asn-Cha-B5-Asp-Gln-iPrLys-Ala-Phe-Asn-PyrS2-3cbmf-BztA-Gln-NH2]
